Assay results as given in article PMC7918733, “Biological Profiling of Semisynthetic C19-Functionalized Ferruginol and Sugiol Analogues” (Antibiotics, 2021).
Where two headings read alike, the source gives them in different places.

Tests used:
[1] = test system: L. infantum promastigotes; parameters: method as in PMID 30840453; details: C18-congeners, read-out: L. infantum IC50 ± SD; cited from earlier work
[2] = test system: L. donovani promastigotes; details: C18-congeners, read-out: L. donovani IC50 ± SD; cited from earlier work
[3] = test system: L. amazonensis promastigotes; parameters: method as in PMID 30840453; details: C18-congeners, read-out: L. amazonensis IC50 ± SD; cited from earlier work
[4] = test system: L. guyanensis promastigotes; parameters: method as in PMID 30840453; details: C18-congeners, read-out: L. guyanensis IC50 ± SD; cited from earlier work
A549 (Lung) [5] = details: C18-congeners; cited from earlier work
HBL-100 (Breast) [6] = details: C18-congeners; cited from earlier work
HeLa (Cervix) [7] = details: C18-congeners; cited from earlier work
SW1573 (Lung) [8] = details: C18-congeners; cited from earlier work
T-47D (Breast) [9] = details: C18-congeners; cited from earlier work
WiDr (Colon) [10] = details: C18-congeners; cited from earlier work
Macrophages J774 = details: read-out: Macrophages J774 CC50; C18-congeners; cited from earlier work
[11] = biological target: T1, GABAA receptor subtype (α1β2γ2S) (Homo sapiens, UniProt P14867+P18507+P47870); parameters: expressed in transfected cells; host or cells: Xenopus laevis oocytes; details: C18-congeners, cited from earlier work
T1 sequence (P14867 28-456): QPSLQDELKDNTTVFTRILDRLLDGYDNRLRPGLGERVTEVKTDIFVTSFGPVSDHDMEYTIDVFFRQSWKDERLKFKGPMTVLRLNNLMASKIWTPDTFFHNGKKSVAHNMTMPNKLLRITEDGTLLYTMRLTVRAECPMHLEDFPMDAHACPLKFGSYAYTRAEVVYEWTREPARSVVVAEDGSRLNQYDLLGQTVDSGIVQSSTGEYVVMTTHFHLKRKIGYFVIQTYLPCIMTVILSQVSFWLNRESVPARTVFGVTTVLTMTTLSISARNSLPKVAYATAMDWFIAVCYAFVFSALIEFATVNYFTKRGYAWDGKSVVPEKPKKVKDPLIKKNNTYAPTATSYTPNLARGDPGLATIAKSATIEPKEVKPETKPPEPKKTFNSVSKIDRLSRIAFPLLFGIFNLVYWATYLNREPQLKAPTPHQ
T1 sequence (P47870 26-512): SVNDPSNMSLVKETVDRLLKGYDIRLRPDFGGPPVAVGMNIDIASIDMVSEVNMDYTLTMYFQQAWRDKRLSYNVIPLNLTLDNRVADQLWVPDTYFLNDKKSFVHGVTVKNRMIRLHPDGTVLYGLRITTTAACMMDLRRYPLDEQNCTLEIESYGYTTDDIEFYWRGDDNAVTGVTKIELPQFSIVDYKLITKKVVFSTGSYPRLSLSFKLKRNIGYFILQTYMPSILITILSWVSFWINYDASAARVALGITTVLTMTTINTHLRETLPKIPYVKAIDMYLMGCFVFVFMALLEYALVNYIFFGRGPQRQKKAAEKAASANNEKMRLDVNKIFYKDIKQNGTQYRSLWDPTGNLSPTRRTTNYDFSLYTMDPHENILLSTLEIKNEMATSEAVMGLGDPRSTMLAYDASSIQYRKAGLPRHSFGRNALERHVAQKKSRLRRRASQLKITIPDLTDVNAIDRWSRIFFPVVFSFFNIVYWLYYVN
T1 sequence (P18507 40-467 isoform P18507-1 limits assumed): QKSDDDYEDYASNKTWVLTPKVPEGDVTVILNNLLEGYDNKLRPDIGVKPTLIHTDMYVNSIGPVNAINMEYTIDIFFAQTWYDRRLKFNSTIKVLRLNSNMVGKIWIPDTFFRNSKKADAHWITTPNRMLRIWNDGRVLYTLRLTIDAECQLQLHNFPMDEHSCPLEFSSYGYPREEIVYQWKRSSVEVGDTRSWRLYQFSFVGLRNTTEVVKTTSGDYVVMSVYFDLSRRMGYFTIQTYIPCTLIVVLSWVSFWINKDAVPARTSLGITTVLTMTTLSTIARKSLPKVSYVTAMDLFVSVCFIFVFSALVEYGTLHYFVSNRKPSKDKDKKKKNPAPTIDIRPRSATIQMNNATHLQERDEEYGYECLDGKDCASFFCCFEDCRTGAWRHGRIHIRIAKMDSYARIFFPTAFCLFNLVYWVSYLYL

P. falciparum 3D7 strain = test: Antiplasmodial DNA stain-based growth assay; format: cell-based; details: Plasmodium falciparum, 3D7; chloroquine-sensitive strain; 72 h incubation; read-out: P. falciparum 3D7 EC50
Protocol: (§1) Assays were performed by using previously described DNA stain-based assay and methods, including cytotoxicity assays.

P. falciparum K1 strain = test: Antiplasmodial DNA stain-based growth assay; format: cell-based; details: Plasmodium falciparum, K1; chloroquine-resistant strain; 72 h incubation; read-out: P. falciparum K1 EC50
Protocol: as §1

BJ = test: Cytotoxicity on mammalian cell lines; format: cell-based; details: Homo sapiens, read-out: BJ EC50
Protocol: as §1

HEK293 = test: Cytotoxicity on mammalian cell lines; format: cell-based; details: Homo sapiens, HEK293; read-out: HEK293 EC50
Protocol: as §1

HepG2 = test: Cytotoxicity on mammalian cell lines; format: cell-based; details: Homo sapiens, HepG2; read-out: HepG2 EC50
Protocol: as §1

RAJI = test: Cytotoxicity on mammalian cell lines; format: cell-based; details: Homo sapiens, read-out: RAJI EC50
Protocol: as §1

A549 (Lung) [12] = test: Antiproliferative SRB assay; format: cell-based, human
Protocol: (§2) Cells, cultures and the activity test of abietane analogs followed reported methods. The SRB assay was performed as previously described, and the antiproliferative activity was given as GI50 values, which were calculated according to NCI formulas.

SW1573 (Lung) [13] = test: Antiproliferative SRB assay; format: cell-based, human
Protocol: as §2

WiDr (Colon) [14] = test: Antiproliferative SRB assay; format: cell-based, human; details: mean ± SD of at least two experiments
Protocol: as §2

HBL-100 (Breast) [15] = test: Antiproliferative SRB assay; format: cell-based; details: Homo sapiens, mean ± SD of at least two experiments
Protocol: as §2

HeLa (Cervix) [16] = test: Antiproliferative SRB assay; format: cell-based; details: Homo sapiens, mean ± SD of at least two experiments
Protocol: as §2

T-47D (Breast) [17] = test: Antiproliferative SRB assay; format: cell-based; details: Homo sapiens, T47D, mean ± SD of at least two experiments
Protocol: as §2

in vitro = details: mouse, Macrophages J774 CC50
Protocol: (§3) The compounds were additionally studied in a panel of mammalian cell lines to determine cytotoxicity.
(§4) The parasites, culture procedure and the activity of functionalized abietane analogs on Leishmania promastigotes were performed according to the method previously reported by us [28], while the intracellular amastigote assay was performed on L. amazonensis and L. infantum according to the fluorometric test [29]. The J774 cell culture and the cytotoxicity assay was carried out according to our previously described method [30].

[18] = biological target: T1, GABAA receptor subtype (α1β2γ2S); test: Two-microelectrode voltage-clamp in Xenopus laevis oocytes
Protocol: All molecules were tested at concentrations of 10, 100 μM and compared with dehydroabietic acid (DHA) (3) as a reference [16].

L. infantum amastigotes = test: Intracellular amastigote assay (fluorometric test); format: cell-based; details: Leishmania infantum, read-out: L. infantum IC50 ± SD
[19] = test system: L. amazonensis amastigotes; test: Intracellular amastigote assay (fluorometric test); format: cell-based; details: Leishmania amazonensis, read-out: L. amazonensis IC50 ± SD
[20] = test system: L. infantum promastigotes; test: Antileishmanial in vitro promastigote assay; details: Leishmania infantum, read-out: L. infantum IC50 ± SD
Protocol: as §3, §4

[21] = test system: L. donovani promastigotes; test: Antileishmanial in vitro promastigote assay; details: Leishmania donovani, read-out: L. donovani IC50 ± SD
Protocol: as §3, §4

[22] = test system: L. amazonensis promastigotes; test: Antileishmanial in vitro promastigote assay; details: Leishmania amazonensis, read-out: L. amazonensis IC50 ± SD
Protocol: as §3, §4

[23] = test system: L. guyanensis promastigotes; test: Antileishmanial in vitro promastigote assay; details: Leishmania guyanensis, read-out: L. guyanensis IC50 ± SD
Protocol: as §3, §4

[24] = Homo sapiens, A549, mean ± SD of at least two experiments
[25] = Homo sapiens, SW1573, mean ± SD of at least two experiments
[26] = mean ± SD of at least two experiments

CC(C)c1cc2c(cc1O)[C@@]1(C)CCC[C@@](C)(C(=O)O)C1CC2 (stereo partly drawn) [Compound 13b, 12-hydroxydehydroabietic acid]
IC50 [1]: 43.6 ± 3.4 µM
IC50 [2]: 58.1 ± 0.7 µM
IC50 [3]: 54.1 ± 6.5 µM
IC50 [4]: 71.4 ± 1.5 µM
GI50 (A549 (Lung) [5]): 70 ± 6.3 µM
GI50 (HBL-100 (Breast) [6]): > 100 µM
GI50 (HeLa (Cervix) [7]): 96 ± 5.5 µM
GI50 (SW1573 (Lung) [8]): 93 ± 9.3 µM
GI50 (T-47D (Breast) [9]): > 100 µM
GI50 (WiDr (Colon) [10]): > 100 µM
CC50 (Macrophages J774): 85.8 ± 28.8 µM
IGABA Potentiation of 10 µM (%) [11]: 8.9 ± 2.3%
IGABA Potentiation of 100 µM (%) [11]: 12.1 ± 2.9%

CC(C)c1cc2c(cc1O)[C@@]1(C)CCC[C@@](C)(CO)[C@@H]1CC2 [Compound 14b]
IC50 [1]: 0.7 ± 0.1 µM
IC50 [2]: 13.9 ± 0.1 µM
IC50 [3]: 7.7 ± 0.8 µM
IC50 [4]: 12.5 ± 2.2 µM
GI50 (A549 (Lung) [5]): 12 ± 1.9 µM
GI50 (HBL-100 (Breast) [6]): 16 ± 2 µM
GI50 (HeLa (Cervix) [7]): 12 ± 1.8 µM
GI50 (SW1573 (Lung) [8]): 15 ± 2.8 µM
GI50 (T-47D (Breast) [9]): 16 ± 0.9 µM
GI50 (WiDr (Colon) [10]): 17 ± 1.3 µM
CC50 (Macrophages J774): 23.4 ± 4.6 µM
IGABA Potentiation of 10 µM (%) [11]: 29.3 ± 10.6%
IGABA Potentiation of 100 µM (%) [11]: 154.1 ± 34.2%

CC(C)c1cc2c(cc1O)[C@@]1(C)CCC[C@](C)(CO)[C@@H]1CC2=O [Compound 15, 19-hydroxysugiol]
EC50 (P. falciparum 3D7 strain): > 15 µM
EC50 (P. falciparum K1 strain): 9.4 µM
EC50 (BJ): > 25 µM
EC50 (HEK293): > 25 µM
EC50 (HepG2): > 25 µM
EC50 (RAJI): > 25 µM
GI50 (A549 (Lung) [12]; [24]): 10 ± 0.3 µM
GI50 (SW1573 (Lung) [13]; [25]): 19 ± 3.3 µM
GI50 (WiDr (Colon) [14]; Homo sapiens, WiDr): 17 ± 5 µM
GI50 (HBL-100 (Breast) [15]): 17 ± 1.7 µM
GI50 (HeLa (Cervix) [16]): 15 ± 1.1 µM
GI50 (T-47D (Breast) [17]): 19 ± 1.1 µM
CC50 (in vitro): 50.1 ± 2.4 µM
IGABA Potentiation of 100 µM (%) ([18]; 100 µM, α1β2γ2S receptors): 238 ± 28%
activation at 10 µM ([18]; read-out: IGABA Potentiation of 10 µM (%)): 30 ± 14%
activation at 100 µM ([18]; read-out: IGABA Potentiation of 100 µM (%)): 238%

CC(C)c1cc2c(cc1O)[C@@]1(C)CCC[C@@](C)(CO)[C@@H]1CC2=O [Compound 15b]
IC50 [1]: 9.7 ± 0.8 µM
IC50 [2]: 19.7 ± 0.4 µM
IC50 [3]: 10.2 ± 0.6 µM
IC50 [4]: 16.5 ± 0.7 µM
GI50 (A549 (Lung) [5]): 19 ± 3.3 µM
GI50 (HBL-100 (Breast) [6]): 16 ± 2 µM
GI50 (HeLa (Cervix) [7]): 16 ± 2.4 µM
GI50 (SW1573 (Lung) [8]): 23 ± 0.7 µM
GI50 (T-47D (Breast) [9]): 20 ± 2.7 µM
GI50 (WiDr (Colon) [10]): 19 ± 2.1 µM
CC50 (Macrophages J774): 14.4 ± 2.8 µM
IGABA Potentiation of 10 µM (%) [11]: 4.5 ± 5.8%
IGABA Potentiation of 100 µM (%) [11]: −30.3 ± 9.5%

COC(=O)[C@]1(C)CCC[C@]2(C)c3cc(O)c(C(C)C)cc3C(=O)C[C@@H]12 [Compound 16b]
GI50 (A549 (Lung) [5]): > 100 µM
GI50 (HBL-100 (Breast) [6]): > 100 µM
GI50 (HeLa (Cervix) [7]): > 100 µM
GI50 (SW1573 (Lung) [8]): > 100 µM
GI50 (T-47D (Breast) [9]): > 100 µM
GI50 (WiDr (Colon) [10]): > 100 µM
CC50 (Macrophages J774): 154 ± 49.3 µM
IGABA Potentiation of 10 µM (%) [11]: 37.4 ± 12.7%
IGABA Potentiation of 100 µM (%) [11]: 242.4 ± 46.0%

CC(C)=CCC[C@]1(C)C=Cc2c(O)c3c(c(CC=C(C)C)c2O1)O[C@]12C(=C[C@@H]4C[C@H]1C(C)(C)O[C@@]2(C/C=C(/C)C(=O)O)C4=O)C3=O [Gambogic acid, reference compound]
EC50 (BJ): 0.21 µM
EC50 (HEK293): 0.21 µM
EC50 (HepG2): > 25 µM
EC50 (RAJI): 0.24 µM

CCCCCCCCCCCCCCCCOP(=O)([O-])OCC[N+](C)(C)C [Miltefosine, reference compound]
IC50 (L. infantum amastigotes): 58.1 ± 4.4 µM
IC50 [19]: 16.5 ± 1.9 µM
CC50 (in vitro): 136 ± 1.4 µM
IC50 [20]: 3.4 ± 0.6 µM
IC50 [21]: 0.15 ± 0.02 µM
IC50 [22]: 47.7 ± 5 µM
IC50 [23]: 18.2 ± 0.6 µM

N.N.[Cl][Pt][Cl] [cisplatin, reference compound]
GI50 (A549 (Lung) [12]; [26]): 4.9 ± 0.2 µM
GI50 (SW1573 (Lung) [13]; [26]): 2.7 ± 0.4 µM
GI50 (WiDr (Colon) [14]): 23 ± 4.3 µM

COc1cc([C@@H]2c3cc4c(cc3[C@@H](O[C@@H]3O[C@@H]5CO[C@@H](C)O[C@H]5[C@H](O)[C@H]3O)[C@H]3COC(=O)[C@H]23)OCO4)cc(OC)c1O [etoposide, reference compound]
GI50 (A549 (Lung) [12]; [24]): 1.5 ± 0.3 µM
GI50 (SW1573 (Lung) [13]; [25]): 15 ± 1.5 µM
GI50 (WiDr (Colon) [14]; Homo sapiens, WiDr): 23 ± 3.1 µM
GI50 (HBL-100 (Breast) [15]): 1.4 ± 0.1 µM
GI50 (HeLa (Cervix) [16]): 3.3 ± 1.6 µM
GI50 (T-47D (Breast) [17]): 22 ± 5.5 µM
